Structures can show the parent of a compound that is named as a salt.
Assay: Plasma stability assay in human plasma (LC-MS/MS)
Type: in vitro ADME
Conditions: 37° C., 3 μM test compound, time points 0-240 min, read-out: Plasma t1/2 (converted)
Description: Procaine and procainamide were purchased from Sigma Aldrich. HPLC-grade acetonitrile, water, methanol, and formic acid were purchased from Fisher Scientific. Human plasma (Cat. No. […]2N) was obtained from BIOIVT, and PBS (1× Dulbecco's, pH 7.4) from Thermo Fisher Scientific.
Test compounds were dissolved in DMSO to make a stock solution of 10 mM and then diluted to 500 μM in buffer or 70% methanol. Human plasma was thawed at ambient temperature and aliquoted (994.0 μL) to a 1.5 mL Eppendorf tube in duplicates (vials A and B) for each compound. The plasma was incubated at 37° C. for 10 min in an incubator shaker at 150 RPM; the reaction was initiated by addition of the test compound (6.0 μL), followed by vortex mixing. The total reaction volume was 1000 μL, the final organic solvent concentrations were […] (when 70% methanol was used for dilution) and 0.03% DMSO, and the final concentration of the test compound was 3 μM. The spiked plasma samples were incubated at 37° C. for 4 h. The reactions were terminated at time point 0, 15, 30, 60, 120, 180, and 240 min by taking a 100 μL aliquot from the test incubation mixture and immediately quenching it by adding it into ice-cold acetonitrile or methanol (150 μL) containing 2 μM internal standard (ISTD), followed by vortex mixing. The ISTD was d5-7-ethoxy coumarin. The samples were then centrifuged at 15000 RPM for 25 min at 4° C., and the supernatant was transferred to an LC-MS vial for analysis by LC-MS/MS. Each time point was tested in duplicates followed by in-between blank washes to avoid carryover and to equilibrate the column.
Procaine (poor plasma stability) and procainamide (good plasma stability) were used as controls at the same concentration as that of the test compound. These controls were run in parallel to test the assay's competency. Matrix blank was prepared by adding acetonitrile or methanol containing ISTD to plasma samples without any of the test or control compounds. Also, an additional control sample was made to simply monitor compound degradation in PBS buffer.
Below is a summary of samples prepared for a given test compound in a typical plasma stability assay: • Test compound (TC): 994 μL human plasma+6.0 μL TC (Vial A) • 994 μL human plasma+6.0 μL TC (Vial B) • Control: 596 μL human plasma+3.6 μL (procaine+procainamide) • Blank matrix: 500 μL PBS buffer+100 μL human plasma • Additional control: 142 μL PBS buffer+0.9 μL TC • Quenching mixture: 150 μL acetonitrile or methanol with ISTD (2 μM) • Final volume: 250 μL (100 μL from the incubation mixture+150 μL quenching mixture; final ISTD conc.: 1.2 μM)
LC-MS/MS analysis was performed using Agilent 1260 Infinity II HPLC, coupled with an Agilent G6460 triple quadrupole mass spectrometer (Agilent Technologies, USA). The data were acquired and processed using the Agilent 6460 Quantitative Analysis data processing software.
Reverse-phase HPLC separation for each compound was achieved on an Agilent InfinityLab Poroshell 120 C18 column (2.1×50 mm, 2.7 μm) with a mobile phase composed of methanol/water with 0.1% formic acid or acetonitrile/water with 0.1% formic acid at a flow rate of 0.5 mL/min. Each method was developed in the presence of the ISTD. The column temperature was maintained at 40° C. The detection was operated using the Agilent Jet-Stream electrospray positive ionization under the multiple reaction monitoring (MRM) mode. The mass spec conditions were as follows: dwell time 100 ms; gas flow 10 L/min; nebulizer pressure 45 psi; delta EMV 200 V.
Plots of time (x-axis) vs. the natural logarithm of percent parent remaining (y-axis) were subsequently constructed to determine the slope. Finally, the plasma stability was evaluated using the following equation: […]

C/C(=N\OC(=O)N(C)C[C@@H]1CCCN1)[C@H]1CC[C@H]2[C@@H]3CCC4C[C@H](O)CC[C@]4(C)[C@H]3CC[C@]12C (stereo partly drawn) [13c, (E)-1-((3R,8R,9S,10S,13S,14S,17S)-3-hydroxy-10,13-dimethylhexadecahydro-1H-cyclopenta[a]phenanthren-17-yl)ethan-1-one O-(methyl(((S)-pyrrolidin-2-yl)methyl)carbamoyl)oxime trifluoroacetate]
half-life at 3 μM: < 0.1 h

CNCCN(C)C(=O)O/N=C(\C)[C@H]1CC[C@H]2[C@@H]3CCC4C[C@@H](O)CC[C@]4(C)[C@H]3CC[C@]12C (stereo partly drawn) [12a, (E)-1-((3S,8R,9S,10S,13S,14S,17S)-3-hydroxy-10,13-dimethylhexadecahydro-1H-cyclopenta[a]phenanthren-17-yl)ethan-1-one O-(methyl (2-(methylamino)ethyl)carbamoyl) oxime trifluoroacetate]
half-life at 3 μM: 1.45 h

C/C(=N\OC(=O)N(C)C[C@@H]1CCCN1)[C@H]1CC[C@H]2[C@@H]3CC=C4C[C@@H](O)CC[C@]4(C)[C@H]3CC[C@]12C [13b, (E)-1-((3S,8S,9S,10R,13S,14S,17S)-3-hydroxy-10,13-dimethyl-2,3,4,7,8,9,10,11,12,13,14,15,16,17-tetradecahydro-1H-cyclopenta[a]phenanthren-17-yl)ethan-1-one O-(methyl(((S)-pyrrolidin-2-yl)methyl)carbamoyl)oxime trifluoroacetate]
half-life at 3 μM: < 0.1 h

CNCCN(C)C(=O)O/N=C(\C)[C@H]1CC[C@H]2[C@@H]3CC=C4C[C@@H](O)CC[C@]4(C)[C@H]3CC[C@]12C [12b, (E)-1-((3S,8S,9S,10R,13S,14S,17S)-3-hydroxy-10,13-dimethyl-2,3,4,7,8,9,10,11,12,13,14,15,16,17-tetradecahydro-1H-cyclopenta[a]phenanthren-17-yl)ethan-1-one O-(methyl (2-(methylamino)ethyl)carbamoyl)oxime trifluoroacetate]
half-life at 3 μM: 1.23 h

C/C(=N\OC(=O)N(C)C[C@@H]1CCCN1)[C@H]1CC[C@H]2[C@@H]3CCC4C[C@@H](O)CC[C@]4(C)[C@H]3CC[C@]12C (stereo partly drawn) [13a, (E)-1-((3S,8R,9S,10S,13S,14S,17S)-3-hydroxy-10,13-dimethylhexadecahydro-1H-cyclopenta[a]phenanthren-17-yl)ethan-1-one O-(methyl(((S)-pyrrolidin-2-yl)methyl)carbamoyl)oxime trifluoroacetate]
half-life at 3 μM: < 0.1 h

CNCCN(C)C(=O)O/N=C(\C)[C@H]1CC[C@H]2[C@@H]3CCC4C[C@H](O)CC[C@]4(C)[C@H]3CC[C@]12C (stereo partly drawn) [12c, (E)-1-((3R,8R,9S,10S,13S,14S,17S)-3-hydroxy-10,13-dimethylhexadecahydro-1H-cyclopenta[a]phenanthren-17-yl)ethan-1-one O-(methyl (2-(methylamino)ethyl)carbamoyl)oxime trifluoroacetate]
half-life at 3 μM: 1.39 h

— patent US20250026781A1, “Prodrugs of Neurosteroid Analogs and Uses Thereof” (Emory University, priority 2021, published 2025)
